“Also recorded” adds a separate entry of the source. Counter-ions that a name gives are not always drawn. Like-named read-outs stand apart in the source and are kept apart here.
How the values were obtained:
in vitro = settings: Aedes albopictus
[1] = tested on: Wolbachia of L. sigmodontis; experiment: animal or person; assay type: in vivo, Wolbachia of Litomosoides sigmodontis in BALB/c mice; settings: for log reduction at 25 mg/kg/day: ip, 240 h, read-out: wLs ftsz log drop in vivo
[2] = tested on: W. pipientis wAlbB in C6/36 (wAlbB) cells; experiment: microbe, parasite or virus in culture; assay type: cell-based, Wolbachia pipientis; settings: for log reduction at 10 µM: Wolbachia pipientis, C6/36, 216 h, read-out: 16S log drop, 10 μM, 9 days, single agent screening; for Dose response behaviour in titration series: 6 doses from 10 to 0.3 μM
O gutturosa Wolbachia = assay type: cell-based, Wolbachia of Onchocerca gutturosa; settings: for Reduction in Wolbachia (wsp:gst log drop from vehicle controls): 5 days; for Effect on Wolbachia load (in words): 12.5 to 0.195 μM
L. sigmodontis = experiment: In vivo L. sigmodontis screening assay, worm length; set-up: species or system Litomosoides sigmodontis in BALB/c mice
Wolbachia = settings: ref Hermans et al., 2001; cited from earlier work
C6/36 (wAlbB) cells = settings: 10 μM, luminescence vs vehicle-treated control
[3] = reduced regimen, 25 MKD for 10 days

SMILES: CCOc1ccc2nc(S(N)(=O)=O)sc2c1 [Ethoxzolamide]
- cytotoxicity at 10 µM (in vitro): 19%

SMILES: C[C@H]1COc2c(N3CCN(C)CC3)c(F)cc3c(=O)c(C(=O)O)cn1c23 [levofloxacin]
- Activity in the L. sigmodontis mouse model (in words) ([1]; mouse, in vivo): inactive

SMILES: C[C@H]1c2cccc(O)c2C(=O)C2=C(O)[C@]3(O)C(=O)C(C(N)=O)=C(O)[C@@H](N(C)C)[C@@H]3[C@@H](O)[C@@H]21 [Doxycycline]
- 16S log drop in vitro ([2]; doxycycline gold standard, 7 μM, 9 days): 1.6 log
- Reduction in Wolbachia (wsp:gst log drop from vehicle controls) (O gutturosa Wolbachia; 0.195 μM): 0.77 log
- Reduction in Wolbachia (wsp:gst log drop from vehicle controls) (O gutturosa Wolbachia; 0.781 μM): 0.14 log
- Reduction in Wolbachia (wsp:gst log drop from vehicle controls) (O gutturosa Wolbachia; 3.125 μM): 0.21 log
- Reduction in Wolbachia (wsp:gst log drop from vehicle controls) (O gutturosa Wolbachia; 12.5 μM): 0.80 log
- Effect on Wolbachia load (in words) (O gutturosa Wolbachia): reduced the Wolbachia load
- log reduction at 25 mg/kg/day [1]: 2.2
- cytotoxicity at 7 µM (in vitro): 0%

SMILES: C[C@@H]1CN(c2c(F)c(N)c3c(=O)c(C(=O)O)cn(C4CC4)c3c2F)C[C@H](C)N1 [Sparfloxacin]
- log reduction at 25 mg/kg/day [1]: 0.6
- Activity in the L. sigmodontis mouse model (in words) ([1]; mouse, in vivo): demonstrated activity; also recorded: active
- Effect on Wolbachia load (in words) [1, 3]: did not significantly affect
- Effect on Wolbachia load (in words) ([1]; standard doses tested): significantly reduced
- Effect on worm length (in words) (L. sigmodontis; [3]): did not significantly affect
- Effect on worm length (in words) (L. sigmodontis; standard doses tested): significantly reduced
- cytotoxicity at 10 µM (in vitro): 0%

SMILES: Nc1nc(NC2CC2)c2ncn([C@H]3C=C[C@@H](CO)C3)c2n1 [Abacavir Sulfate]
- cytotoxicity at 10 µM (in vitro): 0%

SMILES: COc1ccc2c(c1)c(CC(=O)O)c(C)n2C(=O)c1ccc(Cl)cc1 [Indomethacin]
- log reduction at 10 µM [2]: ≥ 1.6
- cytotoxicity at 10 µM (in vitro): 0%

SMILES: CO[C@@H]1[C@@H](O[C@@H]2O[C@H](C)[C@@H](O[C@H]3C[C@@](C)(O)[C@@H](OC(=O)CC(C)C)[C@H](C)O3)[C@H](N(C)C)[C@H]2O)[C@@H](CC=O)C[C@@H](C)[C@@H](O)/C=C/C=C/C[C@@H](C)OC(=O)C[C@H]1O [Kitasamycin]
- log reduction at 10 µM [2]: ≥ 1.6

SMILES: O=C(O)c1cn(C2CC2)c2cc(N3CCNCC3)c(F)cc2c1=O [Ciprofloxacin hydrochloride]
- Activity in other cell-based Wolbachia assays (Wolbachia): no activity
- Effect on worm length (in words) (L. sigmodontis; standard doses tested): did not reduce
- cytotoxicity at 10 µM (in vitro): 0%

SMILES: CCOC(=O)N1CCC(=C2c3ccc(Cl)cc3CCc3cccnc32)CC1 [Loratadine]
- Effect on worm length (in words) (L. sigmodontis; standard doses tested): no effect
- cytotoxicity at 10 µM (in vitro): 20.7%

SMILES: CCC1(C)CC(=O)NC1=O (centres unmarked) [Ethosuximide]
- log reduction at 10 µM [2]: ≥ 1.6

SMILES: C=C1c2cccc(O)c2C(=O)C2=C(O)[C@]3(O)C(=O)C(C(N)=O)=C(O)[C@@H](N(C)C)[C@@H]3[C@@H](O)[C@H]12 [Methacycline hydrochloride]
- Dose response behaviour in titration series [2]: active at all tested concentrations to the same extent
- log reduction at 10 µM [2]: ≥ 1.6
- cytotoxicity at 10 µM (in vitro): 0%

SMILES: CC(=O)Oc1cccc2c1C(=O)c1c(OC(C)=O)cc(C(=O)O)cc1C2=O [Diacerein]
- cytotoxicity at 10 µM (in vitro): 0%

SMILES: [H]/N=C(/N)NS(=O)(=O)c1ccc(N)cc1 [Sulfaguanidine]
- Dose response behaviour in titration series [2]: active at all tested concentrations to the same extent

SMILES: CO[C@H]1/C=C/O[C@@]2(C)Oc3c(C)c(O)c4c(O)c(c(/C=N/N5CCN(C6CCCC6)CC5)c(O)c4c3C2=O)NC(=O)/C(C)=C\C=C\[C@H](C)[C@H](O)[C@@H](C)[C@@H](O)[C@@H](C)[C@H](OC(C)=O)[C@@H]1C [Rifapentine]
- log reduction at 10 µM [2]: ≥ 1.6
- Reduction in Wolbachia (wsp:gst log drop from vehicle controls) (O gutturosa Wolbachia; 0.195 μM): 0.99 log
- Reduction in Wolbachia (wsp:gst log drop from vehicle controls) (O gutturosa Wolbachia; 0.781 μM): 0.78 log
- Reduction in Wolbachia (wsp:gst log drop from vehicle controls) (O gutturosa Wolbachia; 3.125 μM): 0.77 log
- Reduction in Wolbachia (wsp:gst log drop from vehicle controls) (O gutturosa Wolbachia; 12.5 μM): 1.04 log
- Effect on Wolbachia load (in words) (O gutturosa Wolbachia): greatly reduced the Wolbachia load at all concentrations tested
- Activity in the L. sigmodontis mouse model (in words) ([1]; mouse, in vivo): demonstrated activity
- Effect on Wolbachia load (in words) ([1]; standard doses tested): significantly reduced
- Effect on worm length (in words) (L. sigmodontis; standard doses tested): significantly reduced
- cytotoxicity at 10 µM (in vitro): 20%

SMILES: CC1(C)NC(=O)N(c2ccc([N+](=O)[O-])c(C(F)(F)F)c2)C1=O [Nilutamide]
- cytotoxicity at 10 µM (in vitro): 0.01%

SMILES: CN(C)c1ccc(O)c2c1C[C@H]1C[C@H]3[C@H](N(C)C)C(O)=C(C(N)=O)C(=O)[C@@]3(O)C(O)=C1C2=O [Minocycline]
- log reduction at 10 µM [2]: ≥ 1.6
- log reduction at 25 mg/kg/day [1]: 3.78
- Reduction in Wolbachia load compared with the same dose/regimen of doxycycline ([1]; methacycline 50 MKD, minocycline 25 MKD for 10 days, P < 0.05): significantly greater
- Activity in the L. sigmodontis mouse model (in words) ([1]; mouse, in vivo): demonstrated activity
- Effect on Wolbachia load (in words) [1, 3]: significantly reduced
- Effect on Wolbachia load (in words) ([1]; standard doses tested): significantly reduced
- Effect on worm length (in words) (L. sigmodontis; standard doses tested): significantly reduced
- cytotoxicity at 10 µM (in vitro): 0%

SMILES: COc1c(N2C[C@@H]3CCCN[C@@H]3C2)c(F)cc2c(=O)c(C(=O)O)cn(C3CC3)c12 [Moxifloxacin]
- Effect on Wolbachia load (in words) (O gutturosa Wolbachia): greatly reduced the Wolbachia load at all concentrations tested
- Activity in the L. sigmodontis mouse model (in words) ([1]; levofloxacin and moxifloxacin: data not shown / unpublished observations): active

SMILES: CCCCC(CC)COC(=O)CC(C(=O)OCC(CC)CCCC)S(=O)(=O)[O-].CCCCC(CC)COC(=O)CC(C(=O)OCC(CC)CCCC)S(=O)(=O)[O-].[Ca+2] (centres unmarked) [Docusate Calcium]
- wLs ftsz log drop in vivo ([1]; 200 MKD IP for 14 days): 1.0 log
- Cytotoxicity (%) (C6/36 (wAlbB) cells): 0%
- Ls length reduction in vivo (%) (L. sigmodontis; 200 MKD IP for 14 days): 20.0%

SMILES: NC[C@@H]1O[C@H](O[C@H]2[C@@H](O)[C@H](O[C@@H]3[C@@H](O)[C@H](N)C[C@H](N)[C@H]3O[C@H]3O[C@H](CO)[C@@H](O)[C@H](O)[C@H]3N)O[C@@H]2CO)[C@H](N)[C@@H](O)[C@@H]1O [Paromomycin sulfate]
- Dose response behaviour in titration series [2]: showed a dose response
- log reduction at 10 µM [2]: ≥ 1.6
- cytotoxicity at 10 µM (in vitro): 0%

SMILES: NNC(=O)c1ccncc1 [Isoniazid]
- cytotoxicity at 10 µM (in vitro): 0.3%

SMILES: COc1cc(/C=C/C(=O)CC(=O)/C=C/c2ccc(O)c(OC)c2)ccc1O [Curcumin]
- Dose response behaviour in titration series [2]: activity only at the highest concentration
- cytotoxicity at 10 µM (in vitro): 0%

Source: paper PMC4266796 (International Journal for Parasitology: Drugs and Drug …, 2014)
